{"source": "paper PMC7214099", "about": "(Cell reports, 2020)", "test_system": "IAV PA 1–192 aa endonuclease", "format": "binding"}
{"compound": "O=C1c2c(O)c(=O)ccn2N([C@@H]2c3ccccc3SCc3c2ccc(F)c3F)[C@@H]2COCCN12", "note": "[BXA, Baloxavir acid]", "values": [{"measurement": "increase in thermostability of IAV endonuclease", "value": 28.1, "unit": "°C"}]}
